The test has as its system HIV-1. The conditions noted are these: as part of an optimized regimen, plasma HIV-1 RNA. The method, then:
Groups of HIV-1 positive patients were treated (as part of an optimized regimen) with ATC+either LPV or ATV, and compared to patients treated with 3TC+either LPV or ATV. Samples were taken after therapy to determine the number of patients who achieved an undetectable plasma HIV-1 RNA level (<50 copies/mL).

Here are results for two compounds from US20140315936A1, “AP[…] PI COMBINATION THERAPY” (AVEXA LIMITED, priority 2011, published 2014).

Like-named read-outs stand apart in the source and are kept apart here.

As to `Cc1cccc(C)c1OCC(=O)N[C@@H](Cc1ccccc1)[C@@H](O)C[C@H](Cc1ccccc1)NC(=O)[C@H](C(C)C)N1CCCNC1=O` [LPV, Lopinavir], the “Patients achieving <50 copies/mL, %” value (combined with 150 mg BID 3TC) was 62% and the “Patients achieving <50 copies/mL, %” value (combined with 800 mg BID ATC) turned out to be 60%. Besides, the “Patients achieving <50 copies/mL, n/N” value (combined with 150 mg BID 3TC) is recorded as 18/29 and the “Patients achieving <50 copies/mL, n/N” value (combined with 800 mg BID ATC) is 18/30.

With `COC(=O)N[C@H](C(=O)N[C@@H](Cc1ccccc1)[C@@H](O)CN(Cc1ccc(-c2ccccn2)cc1)NC(=O)[C@@H](NC(=O)OC)C(C)(C)C)C(C)(C)C` [ATV, methyl N-[(1S)-1-{[(2S,3S)-3-hydroxy-4-[(2S)-2-[(methoxycarbonyl)amino]-3,3-dimethyl-N′-{[4-(pyridin-2-yl)phenyl]methyl}butanehydrazido]-1-phenylbutan-2-yl]carbamoyl}-2,2-dimethylpropyl]carbamate], where the note is “combined with 150 mg BID 3TC”, the “Patients achieving <50 copies/mL, %” value was determined as 42.9% and the “Patients achieving <50 copies/mL, n/N” value is 6/14. Further, for the setting “combined with 800 mg BID ATC”, the “Patients achieving <50 copies/mL, %” value is given as 66.7% and the “Patients achieving <50 copies/mL, n/N” value was 8/12.
